According to US6642392B1 (priority 1997, dated 2003):
Like-named read-outs stand apart in the source and are kept apart here.

Assays:
Type in all cases: in vivo
[1] = tested on: Eiysiphe graminis f. sp. tritici; experiment: Test A: wheat powdery mildew, preventive spray on wheat seedlings; settings: for Test A disease control rating: wheat powdery mildew
In short: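 Compounds (3% acetone, 250 ppm Trem 014) sprayed to run-off on wheat seedlings, inoculated next day with spore dust. Incubated 7 days at 20° C before disease rating, 0–100% control relative to untreated controls.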

Puccinia recondita = experiment: Test B: wheat leaf rust, preventive spray on wheat seedlings; settings: for Test B disease control rating: wheat leaf rust
In short: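 Wheat seedlings were sprayed to run-off with compound (3% acetone, 250 ppm Trem 014), then inoculated with P. recondita spores the next day. They were held 24 h saturated at 20 °C, then 6 days at 20 °C. Ratings are 0–100% disease control versus controls.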

Pyricularia oryzae = settings: for Test C disease control rating: rice blast
Phytophthora infestans = settings: for Test D disease control rating: tomato late blight
Botrytis cinerea = experiment: Test E: gray mold, preventive spray on cucumber seedlings; settings: for Test E disease control rating: gray mold on cucumber
In short: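 Compounds in 3% acetone were suspended with 250 ppm Trem 014 surfactant and sprayed to run-off on cucumber seedlings. B. cinerea spores were inoculated next day, then 48 h saturated humidity at 20° C and 5 days at 20° C. Disease control rated 0–100% versus controls.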

[2] = wheat seedlings sprayed to run-off, inoculated the following day, rating relative to controls, unmarked compounds (standard test rate)
[3] = 100 = 100% disease control, 0 = no control, unmarked entries (standard test concentration)

SMILES	Test A disease control rating ([1]; tested at 40 ppm) [%]	Test B disease control rating (Puccinia recondita; tested at 40 ppm) [%]	Test C disease control rating (Pyricularia oryzae; tested at 40 ppm) [%]	Test D disease control rating (Phytophthora infestans; tested at 40 ppm) [%]	Test E disease control rating (Botrytis cinerea; tested at 40 ppm) [%]	other results
CCc1ccccc1OCC(C)NC(=O)C1(CC)C(C)C1(Cl)Cl (stereo not shown) [97b]	71	0	53	0	0	–
CCCc1ccccc1OCC(C)NC(=O)C1(CC)C(C)C1(Cl)Cl (stereo not shown) [98b]	52	0	74	0	0	–
C=CCc1ccccc1OCC(C)NC(=O)C1(CC)C(C)C1(Cl)Cl (stereo not shown) [101b]	0	0	0	0	0	–
CCC1(C(=O)NC(C)COc2c(F)cccc2F)C(C)C1(Cl)Cl (stereo not shown) [105b]	21	0	74	0	0	–
CCC1(C(=O)NC(C)C=Cc2cc(F)ccc2F)C(C)C1(Cl)Cl (stereo not shown) [267b]	–	–	–	–	–	Test A disease control rating (100 = 100% disease control, 0 = no disease control) [1, 2]: 92%; Test B disease control rating (100 = 100% disease control, 0 = no disease control) (Puccinia recondita; [2]): 0%; Test C disease control rating (100 = 100% disease control, 0 = no disease control) (Pyricularia oryzae; rice seedlings sprayed to run-off, inoculated the following day, rating relative to controls, unmarked compounds (standard test rate)): 100%; Test D disease control rating (100 = 100% disease control, 0 = no disease control) (Phytophthora infestans; tomato seedlings sprayed to run-off, inoculated the following day, rating relative to controls, unmarked compounds (standard test rate)): 0%; Test E disease control rating (100 = 100% disease control, 0 = no disease control) (Botrytis cinerea; cucumber seedlings sprayed to run-off, inoculated the following day, rating relative to controls, unmarked compounds (standard test rate)): 55%
CCC1(C(=O)NC(C)COc2ccccc2C(C)C)C(C)C1(Cl)Cl (stereo not shown) [compound 99]	83	0	0	68	0	–
CCC1(C(=O)NC(C)COc2ccccc2C(C)(C)C)C(C)C1(Cl)Cl (stereo not shown) [compound 100]	52	0	0	0	0	–
CCC1(C(=O)NC(C)COc2ccccc2CC#N)C(C)C1(Cl)Cl (stereo not shown) [compound 103]	–	–	–	–	–	Test A disease control rating ([1]; 100 = 100% disease control, 0 = no control relative to controls, unmarked entries (standard test concentration)): 0%; Test B disease control rating (Puccinia recondita; [3]): 26%; Test C disease control rating (Pyricularia oryzae; [3]): 53%; Test D disease control rating (Phytophthora infestans; [3]): 0%; Test E disease control rating (Botrytis cinerea; [3]): 0%
CCC1(C(=O)NC(C)COc2cccc(F)c2F)C(C)C1(Cl)Cl (stereo not shown) [compound 104]	84	0	97	0	0	–
CCC1(C(=O)NC(C)COc2ccc(F)cc2F)C(C)C1(Cl)Cl (stereo not shown) [compound 106]	84	0	97	19	0	–
CCC1(C(=O)NC(C)COc2cc(F)ccc2F)C(C)C1(Cl)Cl (stereo not shown) [compound 107]	71	0	100	0	0	–
CCC1(C(=O)NC(C)COc2ccc(F)c(F)c2)C(C)C1(Cl)Cl (stereo not shown) [compound 108]	57	0	94	0	0	–
CCC1(C(=O)NC(C)COc2cc(F)cc(F)c2F)C(C)C1(Cl)Cl (stereo not shown) [compound 109]	52	0	53	0	0	–
CCC1(C(=O)NC(C)COc2cc(F)c(F)cc2F)C(C)C1(Cl)Cl (stereo not shown) [compound 110]	90	0	97	0	0	–
